From US20240376097A1, “BCL-2 Inhibitor” (BeiGene Ltd., priority 2020, published 2024) come the findings set out here.

Where two headings read alike, the source gives them in different places.

The target in assay [1] is Recombinant human Bcl-2 protein (Homo sapiens (Human), UniProt P10415). As to the kind of experiment: Bcl-2 TR-FRET Assay. The class given is binding. Put shortly: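 0.05 nM recombinant Bcl-2 preincubated 0.5 h at room temperature with 10-point compound dilutions (top final 1, 0.1, 0.02 or 0.01 uM) in pH 7.5 phosphate buffer. FITC-Bak peptide (0.5 nM) and anti-6His Tb cryptate then added for 1 h. TR-FRET read; IC50 from four-parameter logistic fit.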

The target in assay [2] is recombinant human Bcl-2-G101V protein (Homo sapiens (Human), UniProt P10415, G101V). The experiment in a line: Bcl-2-G101V TR-FRET Assay. The class given is binding. The following applies: Bcl-2 G101V mutant, TR-FRET; read-out: Biochemical assay (IC50, nM) Bcl-2 G101V. The method, boiled down:
(§1)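 Percent inhibition of the Bcl-2-G101V–ligand interaction was computed from the 490 nm to 520 nm emission ratio after 337 nm excitation, over increasing compound concentrations; a four-parameter logistic fit gave IC50.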

Assay [3] has as its system recombinant human Bcl-2-G101V protein. As to the kind of experiment: Bcl-2-G101V TR-FRET Assay. It counts as binding. As to conditions: ratio of biochemical IC50 Bcl-2 G101V / Bcl-2 WT. The method, boiled down:
as §1

The test system of assay [4] is RS4;11 (BCL-2 dependent acute lymphoblastic leukemia cell line). The experiment in a line: RS4;11 Cell Proliferation Assay. The class given is cell-based. The following applies: Homo sapiens, RS4-11, RS4;11 cells, read-out: Cellular proliferation assay (IC50, nM) RS4. The method, boiled down:
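RS4;11 cells, 50,000 per well in RPMI-1640 with 10% FBS, treated 48 h at 37 °C with a 10-point dilution series topping at 1 μM. Viability read by CellTiter-Glo ATP luminescence; mean IC50 reported.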

Assay [5] concerns BCL-2 G101V knock-in cell line H96 (derive from RS4;11). As to the kind of experiment: Bcl 2-G101V Knock-In RS4;11 Cell Proliferation Assay. It counts as cell-based. The following applies: Homo sapiens, RS4;11 Bcl-2 G101V knock-in clone H96, 48 hrs, CellTiter-GLO, read-out: Cellular proliferation assay (IC50, nM) RS4. Put shortly:
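H96, a CRISPR-generated RS4;11 clone carrying BCL2-G101V knock-in (WES/RNA-seq validated), seeded 50,000 per well and exposed 48 h at 37 °C to 10-point dilutions topping at 1 or 10 μM. Viability by CellTiter-Glo luminescence; mean IC50.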

For assay [6], the target named is recombinant human Bcl-2 D103Y protein (Homo sapiens (Human), UniProt P10415, D103Y). As to the kind of experiment: Bcl-2-D103Y Biochemical Assay (TR-FRET). It counts as binding. As to conditions: for IC50: TR-FRET, FITC labeled Bak peptide; for Ratio of Bcl-2 D103Y/Bcl-2 WT: ratio of IC50. The method, boiled down:
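Recombinant human Bcl-2 D103Y binding to its ligand measured by TR-FRET (ex 337 nm, em 490/520 nm) with increasing compound concentrations. Percent inhibition from the 490/520 nm ratio; IC50 from four-parameter logistic fit.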

The mark [7] stands for this setting: Bcl-2 wild type, TR-FRET, read-out: Biochemical assay (IC50, nM) Bcl-2 WT.
Setting [8] is: wild type Bcl-2, unit inferred, read-out: Bcl-2 WT.

In the case of `COc1cc(CN2CCN(C3CC4(C3)CN(c3ccc(C(=O)NS(=O)(=O)c5ccc(NC[C@H]6CC[C@](C)(O)CC6)c([N+](=O)[O-])c5)c(Oc5cnc6[nH]cc(F)c6c5)c3)C4)[C@H](c3ccccc3C(C)C)C2)cc2ccoc12` [Example 306, 2-((3-fluoro-1H-pyrrolo[2,3-b]pyridin-5-yl)oxy)-N-((4-((((1r,4r)-4-hydroxy-4-methylcyclohexyl)methyl)amino)-3-nitrophenyl)sulfonyl)-4-(6-((R)-2-(2-isopropylphenyl)-4-((7-methoxybenzofuran-5-yl)methyl)piperazin-1-yl)-2-azaspiro[3.3]heptan-2-yl)benzamide], the IC50 in assay [1] (setting [7]) is 0.31 nM; in assay [1] (setting [8]) it was 0.31 nM; in assay [2], 0.97 nM; in assay [4], 0.12 nM; in assay [5], 0.15 nM; in assay [6], 310 pM. Further, the “Ratio of Bcl-2 G101V/WT” value in assay [3] worked out at 3.1. Also, in assay [6], the “Ratio of Bcl-2 D103Y/Bcl-2 WT” value turned out to be 1.0.

Consider `COc1cc(CN2CCN(C3CC4(CCN(c5ccc(C(=O)NS(=O)(=O)c6ccc(NC[C@H]7CC[C@](C)(O)CC7)c([N+](=O)[O-])c6)c(Oc6cnc7[nH]cc(F)c7c6)c5)CC4)C3)[C@H](c3ccccc3C(C)C)C2)ccc1C` [Example 273, 2-((3-fluoro-1H-pyrrolo[2,3-b]pyridin-5-yl)oxy)-N-((4-((((1r,4r)-4-hydroxy-4-methylcyclohexyl)methyl)amino)-3-nitrophenyl)sulfonyl)-4-(2-((R)-2-(2-isopropylphenyl)-4-(3-methoxy-4-methylbenzyl)piperazin-1-yl)-7-azaspiro[3.5]nonan-7-yl)benzamide], for which the IC50 in assay [1] (setting [7]) worked out at 0.7 nM; in assay [1] (setting [8]), 0.7 nM; in assay [2], 1.9 nM; in assay [4], 0.25 nM; in assay [5] it was 0.46 nM; in assay [6] it was 820 pM. Besides, in assay [3], the “Ratio of Bcl-2 G101V/WT” value was found to be 2.6. In assay [6], the “Ratio of Bcl-2 D103Y/Bcl-2 WT” value is 1.2.

For `COc1cc(CN2CCN(C3CC4(C3)CN(c3ccc(C(=O)NS(=O)(=O)c5ccc(NCC6CCOCC6)c([N+](=O)[O-])c5)c(Oc5cnc6[nH]ccc6c5)c3)C4)[C@H](c3ccccc3C(C)C)C2)ccc1C1CC1` [Example 319], the IC50 came to 0.25 nM in assay [1] (setting [7]); 0.25 nM in assay [1] (setting [8]); 0.85 nM in assay [2]; 0.24 nM in assay [4]; 0.84 nM in assay [5]; 420 pM in assay [6]. In addition, the “Ratio of Bcl-2 G101V/WT” value in assay [3] came to 3.3. For the same compound, in assay [6], the “Ratio of Bcl-2 D103Y/Bcl-2 WT” value is on record as 1.7.

For `COc1cc(CN2CCN(C3CC4(CCN(c5ccc(C(=O)NS(=O)(=O)c6ccc(NC[C@H]7CC[C@](C)(O)CC7)c([N+](=O)[O-])c6)c(Oc6cnc7[nH]ccc7c6)c5)CC4)C3)C(c3ccccc3C(C)C)C2)cc(OC)c1OC` (stereo partly shown) [Example 75, 2-((1H-pyrrolo[2,3-b]pyridin-5-yl)oxy)-N-((4-((((1r,4r)-4-hydroxy-4-methylcyclohexyl)methyl)amino)-3-nitrophenyl)sulfonyl)-4-(2-(2-(2-isopropylphenyl)-4-(3,4,5-trimethoxybenzyl)piperazin-1-yl)-7-azaspiro[3.5]nonan-7-yl) benzamide], the IC50 in assay [1] (setting [7]) was determined as 0.059 nM; in assay [1] (setting [8]) it was 0.059 nM; in assay [2], 0.28 nM; in assay [4], 0.35 nM; in assay [5], 1.5 nM; in assay [6] it was 220 pM. In assay [3], the “Ratio of Bcl-2 G101V/WT” value is on record as 4.7. Further, the “ratio of Bcl-2 D103Y/Bcl-2 wt, compared with F91b in WO2019210828” value in assay [6] (comparison in words) is on record as “significantly lower”. Also, the “Ratio of Bcl-2 D103Y/Bcl-2 WT” value in assay [6] was found to be 3.6.

As to `[2H]C([2H])([2H])Oc1cc(CN2CCN(C3CC4(C3)CN(c3ccc(C(=O)NS(=O)(=O)c5ccc(NC[C@H]6CC[C@](C)(O)CC6)c([N+](=O)[O-])c5)c(Oc5cnc6[nH]cc(F)c6c5)c3)C4)[C@H](c3ccccc3C(C)C)C2)cc2c1OCC2(C)C` [Example 326, 2-((3-fluoro-1H-pyrrolo[2,3-b]pyridin-5-yl)oxy)-N-((4-((((1r,4r)-4-hydroxy-4-methylcyclohexyl)methyl)amino)-3-nitrophenyl)sulfonyl)-4-(6-((R)-2-(2-isopropylphenyl)-4-((7-(methoxy-d3)-3,3-dimethyl-2,3-dihydrobenzofuran-5-yl)methyl)piperazin-1-yl)-2-azaspiro[3.3]heptan-2-yl)benzamide], the IC50 in assay [1] (setting [7]) was determined as 0.17 nM; in assay [1] (setting [8]), 0.17 nM; in assay [2] it was 0.49 nM; in assay [4] it was 0.19 nM; in assay [5], 0.34 nM; in assay [6] it was 250 pM. Further, the “Ratio of Bcl-2 G101V/WT” value in assay [3] worked out at 3. In assay [6], the “Ratio of Bcl-2 D103Y/Bcl-2 WT” value stood at 1.5.

Regarding `COc1cc(CN2CCN(C3CC4(CCN(c5ccc(C(=O)NS(=O)(=O)c6ccc(NC[C@H]7CC[C@](C)(O)CC7)c([N+](=O)[O-])c6)c(Oc6cnc7[nH]cc(F)c7c6)c5)CC4)C3)[C@H](c3ccccc3C(C)C)C2)ccc1F` [Example 190, 2-((3-fluoro-1H-pyrrolo[2,3-b]pyridin-5-yl)oxy)-4-(2-((R)-4-(4-fluoro-3-methoxybenzyl)-2-(2-isopropylphenyl)piperazin-1-yl)-7-azaspiro[3.5]nonan-7-yl)-N-((4-((((1r,4r)-4-hydroxy-4-methylcyclohexyl)methyl)amino)-3-nitrophenyl)sulfonyl)benzamide], the IC50 in assay [1] (setting [7]) turned out to be 0.23 nM; in assay [1] (setting [8]), 0.23 nM; in assay [2] it was 0.62 nM; in assay [4], 0.13 nM; in assay [5], 0.37 nM; in assay [6], 340 pM. Besides, the “Ratio of Bcl-2 G101V/WT” value in assay [3] is reported as 2.7. Besides, the “Ratio of Bcl-2 D103Y/Bcl-2 WT” value in assay [6] is 1.5.

As for `COc1ccc(CN2CCN(C3CC4(CCN(c5ccc(C(=O)NS(=O)(=O)c6ccc(NC[C@H]7CC[C@](C)(O)CC7)c([N+](=O)[O-])c6)c(Oc6cnc7[nH]ccc7c6)c5)CC4)C3)C(c3ccccc3C(C)C)C2)cc1C#N` (stereo partly shown) [Example 132, 2-((1H-pyrrolo[2,3-b]pyridin-5-yl)oxy)-4-(2-(4-(3-cyano-4-methoxybenzyl)-2-(2-isopropylphenyl)piperazin-1-yl)-7-azaspiro[3.5]nonan-7-yl)-N-((4-((((1r,4r)-4-hydroxy-4-methylcyclohexyl)methyl)amino)-3-nitrophenyl)sulfonyl)benzamide], the IC50 in assay [1] (setting [7]) turned out to be 0.26 nM; in assay [1] (setting [8]), 0.26 nM; in assay [2] it was 0.92 nM; in assay [4], 0.31 nM; in assay [5], 2.05 nM; in assay [6], 470 pM. Further, the “Ratio of Bcl-2 G101V/WT” value in assay [3] is listed as 3.5. Further, in assay [6], the “Ratio of Bcl-2 D103Y/Bcl-2 WT” value is 1.3.

Regarding `CC(C)c1ccccc1C1CN(Cc2cccc3c2OCCCO3)CCN1C1CC2(CCN(c3ccc(C(=O)NS(=O)(=O)c4ccc(NC[C@H]5CC[C@](C)(O)CC5)c([N+](=O)[O-])c4)c(Oc4cnc5[nH]ccc5c4)c3)CC2)C1` (stereo partly shown) [Example 107, 2-((1H-pyrrolo[2,3-b]pyridin-5-yl)oxy)-4-(2-(4-((3,4-dihydro-2H-benzo[b][1,4]dioxepin-6-yl)methyl)-2-(2-isopropylphenyl)piperazin-1-yl)-7-azaspiro[3.5]nonan-7-yl)-N-((4-((((1r,4r)-4-hydroxy-4-methylcyclohexyl)methyl)amino)-3-nitrophenyl)sulfonyl)benzamide], the IC50 in assay [1] (setting [7]) came to 0.11 nM; in assay [1] (setting [8]) it was 0.11 nM; in assay [2], 0.56 nM; in assay [4], 0.33 nM; in assay [5], 1.77 nM; in assay [6] it was 310 pM. Further, in assay [3], the “Ratio of Bcl-2 G101V/WT” value was found to be 5.1. The “Ratio of Bcl-2 D103Y/Bcl-2 WT” value in assay [6] is 2.8.

Turning to `COc1cc(CN2CCN(C3CC4(C3)CN(c3ccc(C(=O)NS(=O)(=O)c5ccc(NC[C@H]6CC[C@](C)(O)CC6)c([N+](=O)[O-])c5)c(Oc5cnc6[nH]cc(F)c6c5)c3)C4)[C@H](c3ccccc3C(C)C)C2)cc(C)c1OC` [Example 231, 4-(6-((R)-4-(3,4-dimethoxy-5-methylbenzyl)-2-(2-isopropylphenyl)piperazin-1-yl)-2-azaspiro[3.3]heptan-2-yl)-2-((3-fluoro-1H-pyrrolo[2,3-b]pyridin-5-yl)oxy)-N-((4-((((1r,4r)-4-hydroxy-4-methylcyclohexyl)methyl)amino)-3-nitrophenyl)sulfonyl) benzamide], the IC50 amounted to 0.27 nM in assay [1] (setting [7]); 0.27 nM in assay [1] (setting [8]); 0.35 nM in assay [2]; 0.12 nM in assay [4]; 0.38 nM in assay [5]; 450 pM in assay [6]. Besides, in assay [3], the “Ratio of Bcl-2 G101V/WT” value was 1.3. The “Ratio of Bcl-2 D103Y/Bcl-2 WT” value in assay [6] turned out to be 1.7.
